Measurements as given in patent US20260041670A1, “DRUGS FOR PREVENTING AND/OR TREATING ALZHEIMER'S DISEASE” (SHENZHEN UNIVERSITY OF ADVANCED TECHNOLOGY, priority 2023, published 2026).
Read-outs that look alike come from different tables or passages of the source.

Assays:
Permeability Caco-2 = format: in vitro ADME; settings: human, Caco-2
Aβ = test: IHC staining of Aβ in brain sections; format: in vivo; settings: 3×Tg mice, gavage 3 months
Description: FIG. 9e illustrates immunohistochemical (IHC) staining of Aβ in brain sections of 3×Tg mice, with a scale bar=50 μm.
FIG. 9f illustrates a quantitative diagram of FIG. 9e (n=6, one-way ANOVA).
(§1) To investigate whether long-term chronic treatment with #2-NP alleviates cognitive deficits in 3×Tg AD model mice, mice were administered via gavage with #2 at 3 mg/kg, #2-NP at 3 mg/kg, and #2-NP at 10 mg/kg. […] The recognition index was increased by #2-NP in a dose-dependent manner (FIGS. 9a and b). […] Additionally, quantitative analysis of Aβ PET signals was performed using the specific ligand [18F] […] Collectively, #2-NP decreases cerebral Aβ deposition, reduces brain atrophy, and ameliorates cognitive deficits in 3×Tg mice.

[1] = Stability in microsomes (mouse); format: in vitro ADME; settings: liver microsomes
[2] = ICR, mouse, in vivo
Description: (§2) FIG. 6b illustrates plasma concentrations following administration of #2 or #2-NP. ICR mice are divided into four groups, which are administered with #2 at 2 mg/kg (intravenous injection, IV), #2 at 5 mg/kg (oral administration, PO), #2-NP at 5 mg/kg (PO), and #2-NP at 10 mg/kg (PO). Blood samples are collected from all three mice of each group at corresponding time points, and concentrations of #2 are quantitatively analyzed by a liquid chromatography-tandem mass spectrometry (LC-MS/MS). Cmax: maximum plasma concentration; Tmax: time to maximum concentration; T½: terminal elimination half-life; AUC: area under curves; MRT: mean residence time; CL: clearance; and F: relative oral bioavailability.
(§3) FIG. 13a illustrates plasma concentrations and PK parameters of #2 quantitatively analyzed by LC-MS/MS after IG administration of #2, #2-NP, and #2-LIP at 5 mg/kg, as well as IN administration of #2 and #2-LIP at 5 mg/kg (n=3; data are represented by mean±SD).
(§4) FIG. 13b illustrates brain concentrations and PK parameters of #2 quantitatively analyzed by LC-MS/MS after IG administration of #2, #2-NP, and #2-LIP at 5 mg/kg, as well as IN administration of #2 and #2-LIP at 5 mg/kg (n=3; data are represented by mean±SD).
(§5) To investigate the in vivo PK profile of #2-NP, lyophilized #2-NP powder was redissolved. […] For quantitative comparison of the effects of the nanoparticle system in delivering #2 to the blood circulation system and brain tissues, PK studies were performed in 2-month-old ICR mice.

[3] = Stability in hepatocytes (mouse); format: in vitro ADME; settings: hepatocytes
Aβ42 = test: ELISA of Aβ42 in brain tissues; format: in vivo; settings: 3×Tg mice, gavage 3 months
Description: FIG. 9i illustrates quantitative analysis of Aβ42 in brain tissues by an enzyme-linked immunosorbent assay (ELISA) (n=3, one-way ANOVA) (data are represented by mean±SD; […], ***p<0.005, ****p≤0.0001).
as §1

[4] = Plasma protein binding (human); format: in vitro ADME; settings: plasma, read-out: Plasma Protein Binding Fu, plasma
hERG = hERG (Homo sapiens, UniProt Q12809); test: hERG inhibition
3×Tg mice [5] = test: Novel object recognition (NOR) test after 3 months treatment; format: in vivo; settings: gavage 3 months, #2 3 mg/kg, #2-NP 3 and 10 mg/kg
Description: FIG. 9a illustrates representative movement trajectories in a novel object recognition (NOR) test for 3×Tg mice from a Vehicle group, a #2 3 mg/kg group, a #2-NP 3 mg/kg group, and a #2-NP 10 mg/kg group.
FIG. 9b illustrates statistical analysis of recognition indexes of different groups (n=6, one-way ANOVA).
as §1

in vivo = settings: ICR, mouse
Description: as §2, §3, §4, §5

[6] = Stability in plasma (mouse); format: in vitro ADME; settings: plasma, read-out: Stability-Plasma T1/2
Permeability PAMPA-BBB = format: in vitro ADME; settings: PAMPA; read-out: Permeability-PAMPA-BBB Pe
[7] = Stability in hepatocytes (human); format: in vitro ADME; settings: hepatocytes
[8] = Stability in microsomes (human); format: in vitro ADME; settings: liver microsomes
p-TrkB Y816 = test: Immunofluorescent staining of p-TrkB in brain sections; format: in vivo; settings: 3×Tg mice, IF staining
Description: FIG. 11a illustrates immunofluorescent (IF) staining of p-TrkB and microtubule-associated protein 2 (MAP2) in brain tissues of 3×Tg mice, with a scale bar=50 μm.
FIG. 11e illustrates quantification of p-TrkB intensities in the hippocampus (n=6, one-way ANOVA) (data are represented by mean±SD; ns represents no statistically significant difference, *p<0.05, **p<0.01, ***p<0.001).
To further analyze the therapeutic effects of #2-NP against AD pathology, immunofluorescent (IF) staining of p-TrkB was performed on brain sections from drug-treated 3×Tg mice. […] Consequently, p-AEP IF signals were closely correlated with the upstream p-TrkB activity (FIGS. 11b & f). Simultaneously, active AEP IF staining was inversely coupled with the p-AEP activity, thereby leading to a progressive decline in APP C585 levels. Consistent with these findings, Tau N368 signals and AT8 IF intensity were closely correlated with each other (FIGS. 7C & D). Quantitative analysis of the fluorescence intensity confirmed these observations (FIGS. 11g-j).

3×Tg mice [9] = test: MRI cerebral cortex volume; format: in vivo; settings: gavage 3 months
Description: FIG. 9c illustrates representative T2-weighted magnetic resonance imaging (MRI) scanning images of 3×Tg mice, with cortical regions of interest (ROI) marked by red lines.
FIG. 9d illustrates a quantified cerebral cortex volume of ROI (n=3, one-way ANOVA).
as §1

[10] = Plasma protein binding (mouse); format: in vitro ADME; settings: plasma, read-out: Plasma Protein Binding Fu, plasma
[11] = read-out: Stability-Microsomes CL
[12] = read-out: Stability-Microsomes T1/2
[13] = read-out: Stability-Hepatocytes CL
[14] = read-out: Stability-Hepatocytes T1/2

Chain of hERG (Q12809 whole entry): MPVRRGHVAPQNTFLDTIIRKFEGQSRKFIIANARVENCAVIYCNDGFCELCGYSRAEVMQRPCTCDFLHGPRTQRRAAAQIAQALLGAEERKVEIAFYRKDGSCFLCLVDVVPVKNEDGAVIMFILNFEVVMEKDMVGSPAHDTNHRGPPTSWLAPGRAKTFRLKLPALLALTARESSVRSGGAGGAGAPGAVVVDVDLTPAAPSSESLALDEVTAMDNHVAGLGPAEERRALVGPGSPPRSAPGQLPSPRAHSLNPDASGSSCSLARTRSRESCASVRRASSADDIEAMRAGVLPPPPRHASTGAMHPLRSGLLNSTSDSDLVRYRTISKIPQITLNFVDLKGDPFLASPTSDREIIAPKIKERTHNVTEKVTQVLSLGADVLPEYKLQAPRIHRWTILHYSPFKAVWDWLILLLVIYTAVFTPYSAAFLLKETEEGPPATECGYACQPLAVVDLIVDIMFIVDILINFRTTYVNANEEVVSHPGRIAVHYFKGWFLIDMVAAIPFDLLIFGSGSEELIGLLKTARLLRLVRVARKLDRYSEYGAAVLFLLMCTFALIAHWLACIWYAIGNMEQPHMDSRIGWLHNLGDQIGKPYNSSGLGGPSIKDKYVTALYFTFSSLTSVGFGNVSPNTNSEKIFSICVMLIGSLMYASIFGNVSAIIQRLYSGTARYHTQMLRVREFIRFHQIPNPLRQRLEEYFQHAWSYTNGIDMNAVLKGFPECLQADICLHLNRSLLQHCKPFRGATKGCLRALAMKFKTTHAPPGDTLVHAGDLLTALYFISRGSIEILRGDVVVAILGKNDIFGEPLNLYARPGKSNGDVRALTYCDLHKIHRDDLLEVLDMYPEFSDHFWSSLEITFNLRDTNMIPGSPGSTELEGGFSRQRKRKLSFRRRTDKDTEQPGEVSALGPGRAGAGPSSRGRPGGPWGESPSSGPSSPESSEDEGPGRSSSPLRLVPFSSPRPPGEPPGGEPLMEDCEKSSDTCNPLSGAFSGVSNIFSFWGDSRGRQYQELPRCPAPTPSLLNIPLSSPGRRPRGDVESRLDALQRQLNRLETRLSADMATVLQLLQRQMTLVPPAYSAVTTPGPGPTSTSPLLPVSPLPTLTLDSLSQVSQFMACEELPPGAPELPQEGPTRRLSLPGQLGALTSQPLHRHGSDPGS

Compound `CNCc1ccc(-c2cc(=O)c3ccc4nc(C(F)(F)F)[nH]c4c3o2)cc1` [#2] has an efflux ratio (Permeability Caco-2) of 193, a Papp A→B (Permeability Caco-2; a-b) of 0.0175 ×10⁻⁶ cm/s and a Papp B→A (Permeability Caco-2; b-a) of 13.9 ×10⁻⁶ cm/s. For the same compound, the “Aβ aggregation in the hippocampus” value (Aβ) was “significantly reduced”, the microsomal CLint [1, 11] was 10.5 µL/min/mg and the half-life [1, 12] was 133 min. For the same compound, the “brain AUC” value ([2]; 5 mg/kg) was 78.34 ng·h/mL, the “plasma Cmax, IN versus PO administration” value ([2]; 5 mg/kg) was “approximately 10 fold” and the “clearance (CL)” value ([2]; inhaled or intranasal, 5 mg/kg) was 2.637 L/h/kg. The brain maximum concentration ([2]; iv) was 18.47 ng/g, the “brain AUC” value ([2]; iv, 2 mg/kg) was 84.26 ng·h/mL and the “brain Cmax” value ([2]; iv, 2 mg/kg) was 164.38 ng/g. For the same compound, the brain maximum concentration ([2]; po) was 27.663 ng/g, the “brain AUC” value ([2]; po, 5 mg/kg) was 35.75 ng·h/mL and the “brain Cmax” value ([2]; po, 5 mg/kg) was 18.47 ng/g. The clearance ([2]; po, 5 mg/kg) was 223 mL/min/kg, the hepatocyte CLint [3, 13] was < 3 µL/min/1e6 cells and the half-life [3, 14] was > 480 min. For the same compound, the Aβ42 content (Aβ42) was “significantly decreased”, the fraction unbound [4] was 0.046 and the IC50 (hERG) was > 10 µM. The “cognitive function in NOR test (recognition index)” value (3×Tg mice [5]) was “failed to improve”, the Kp (in vivo) was ~0.1 and the Cmax (in vivo; 5 mg/kg, maximum plasma concentration (Cmax)) was 947 ng/mL. It also gave an AUC (in vivo; inhaled or intranasal, 5 mg/kg) of 1900 ng·h/mL, an MRT (in vivo; inhaled or intranasal, 5 mg/kg) of 2.11 h and a bioavailability (in vivo; inhaled or intranasal, 5 mg/kg) of 34.3%. It also gave a half-life (in vivo; inhaled or intranasal, 5 mg/kg, elimination half-life) of 92.5 min, a Cmax (in vivo; inhaled or intranasal, 5 mg/kg, maximum plasma concentration (Cmax)) of 947 ng/mL and an AUC (in vivo; iv, 2 mg/kg) of 2320 ng·h/mL. For the same compound, the half-life (in vivo; iv, 2 mg/kg, brain t1/2) was 84.6 min, the half-life (in vivo; iv, 2 mg/kg, plasma half-life (t½)) was 50.4 min and the half-life (in vivo; iv, half-life in the brain) was 209 min. For the same compound, the AUC (in vivo; po, 5 mg/kg) was 405 ng·h/mL, the Cmax (in vivo; po, 5 mg/kg, Cmax) was 90.8 ng/mL and the half-life (in vivo; po, 5 mg/kg, brain t1/2) was 209 min. The half-life (in vivo; po, 5 mg/kg, half-life in the brain) was 144 min, the Cmax (in vivo; po, 5 mg/kg, maximum plasma concentration (Cmax)) was 90.8 ng/mL and the half-life (in vivo; po, 5 mg/kg, plasma half-life (t½)) was ~245 min. The half-life (in vivo; t1/2) was 246 ± 159 min, the half-life [6] was > 480 min and the Papp (Permeability PAMPA-BBB) was 0.135 ×10⁻⁶ cm/s. For the same compound, the hepatocyte CLint [7, 13] was < 3 µL/min/1e6 cells, the half-life [7, 14] was > 480 min and the microsomal CLint [8, 11] was 2.32 µL/min/mg. For the same compound, the half-life [8, 12] was 598 min, the “p-TrkB Y816 in the hippocampus” value (p-TrkB Y816) was “significant activation” and the “cerebral cortex volume compared to the Vehicle group” value (3×Tg mice [9]) was “elevation trend without statistical significance”. For the same compound, the fraction unbound [10] was 0.012.
